Laboratory results from US8673578B2, “Methods of identifying antagonists of the hTAS2R46 bitter taste receptor” (Deutsches Institut für Ernahrungsforschung Potsdam-Rehbrücke, priority 2009, dated 2014).

Tests used:
hTAS2R14 = target: T1, hTAS2R14 (Homo sapiens, UniProt Q9NYV8); test: calcium imaging (FLIPR), activation of hTAS2R-transfected HEK293T-Gα16gust44 cells; type: cell-based; conditions: 100 μM test substance, bath application
T1 construct: expressed in transfected cells; host or cells: HEK293T cells stably expressing chimeric Gα16gust44, transient transfection
T1 sequence (Q9NYV8 1-317): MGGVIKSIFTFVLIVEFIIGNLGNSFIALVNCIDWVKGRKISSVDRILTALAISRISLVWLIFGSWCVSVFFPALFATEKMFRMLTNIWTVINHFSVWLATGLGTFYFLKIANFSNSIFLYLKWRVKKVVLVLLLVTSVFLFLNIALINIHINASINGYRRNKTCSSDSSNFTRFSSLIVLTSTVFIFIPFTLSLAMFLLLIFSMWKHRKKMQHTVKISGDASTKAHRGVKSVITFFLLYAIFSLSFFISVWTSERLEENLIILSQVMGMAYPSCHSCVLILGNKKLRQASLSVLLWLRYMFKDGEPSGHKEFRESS
From the text: (§1) Human TAS2R cDNAs were cloned into pcDNA5/FRT (Invitrogen, San Diego, Calif.). For adequate plasma membrane targeting, receptor cDNA was fused to the aminoterminal sequence of the rat somatostatin type 3 receptor at the aminoterminus of the recombinant protein (Bufe, B., T. Hofmann, et al. (2002) Nat Genet. 32(3): 397-401). For immunological detection, the Herpes simplex Glycoprotein D epitope was supplemented at the carboxyterminus of the recombinant protein (Bufe et al., supra). Receptor constructs were transiently transfected into HEK293T cells stably expressing the chimeric G protein subunit Gα16gust44 (Ueda, T., S. Ugawa, et al. (2003) J Neurosci 23(19): 7376-80) using Lipofectamine 2000 (Invitrogen, San Diego, Calif.) in 96-well plates.
(§2) Calcium Imaging experiments were performed 24 h after transfection using a Fluorometric Imaging Plate Reader (FLIPR, Molecular Devices, Munich, Germany) as previously described (Bufe et al., supra). Taste active compounds were ordered from Sigma (Sigma-Aldrich, Taufkirchen, Germany). Absinthin, 3β hydroxy dihydro costunolide and 3β hydroxy pelenolide were kindly provided by Giovanni Appendino (Novara, Italy). Test substances were directly dissolved in C1 buffer (130 mM NaCl, 10 mM Na-Hepes, 10 mM Glucose, 5 mM KCl, 2 mM CaCl2, pH 7.4) or in DMSO, respectively. DMSO stocks were further diluted in C1 buffer not exceeding a final DMSO concentration of 1% on the cells. For the investigation of antagonistic effects, test substances were premixed. Agonists were applied at concentrations corresponding to EC90, except where indicated otherwise (Table 2). Data were collected from 3 independent experiments performed in quadruplicates and processed with SigmaPlot (SPSS, Chicago, Ill.). Fluorescence signals after application of test substances were corrected for and normalized to background fluorescence (ΔF/F═(F−F0)/F0), and baseline noise was subtracted. Calculation of dose-response curves was done by nonlinear regression using the function f(y)=((a−d)/(1+(x/EC50)^nH)+d).
(§3) In a first series of experiments we tested the two sesquiterpene lactones 3β hydroxy dihydro costunolide (formula (I) in FIG. 1) and 3β hydroxy pelenolide (formula (II) in FIG. 1) for their ability to activate hTAS2 receptor-expressing HEK293T cells.
(§4) Signal amplitudes were comparatively small (FIG. 2C).

hTAS2R10 = target: T2, hTAS2R10 (Homo sapiens, UniProt Q9NYW0); test: as above; type: cell-based; conditions: for calcium response of hTAS2R10-transfected cells: 100 μM test substance, bath application
T2 construct: expressed in transfected cells; host or cells: HEK293T cells stably expressing chimeric Gα16gust44, transient transfection
T2 sequence (Q9NYW0 1-307): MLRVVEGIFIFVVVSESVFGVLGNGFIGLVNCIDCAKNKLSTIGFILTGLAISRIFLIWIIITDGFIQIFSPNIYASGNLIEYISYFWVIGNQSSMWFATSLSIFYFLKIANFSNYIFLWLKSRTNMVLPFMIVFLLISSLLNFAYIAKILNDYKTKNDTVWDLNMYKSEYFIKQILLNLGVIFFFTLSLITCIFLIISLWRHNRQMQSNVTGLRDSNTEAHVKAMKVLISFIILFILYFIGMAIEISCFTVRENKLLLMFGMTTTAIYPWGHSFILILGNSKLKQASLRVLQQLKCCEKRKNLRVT
From the text: as §1, §2, §3, §4

other hTAS2 receptors = test: calcium imaging (FLIPR), effect on agonist-dependent hTAS2R activation; type: cell-based, human; conditions: 100 μM test substance; cognate agonists of Table 2
From the text: as §1
Calcium Imaging experiments were performed 24 h after transfection using a Fluorometric Imaging Plate Reader (FLIPR, Molecular Devices, Munich, Germany) as previously described (Bufe et al., supra). Taste active compounds were ordered from Sigma (Sigma-Aldrich, Taufkirchen, Germany). Absinthin, 3β hydroxy dihydro costunolide and 3β hydroxy pelenolide were kindly provided by Giovanni Appendino (Novara, Italy). […] Fluorescence signals after application of test substances were corrected for and normalized to background fluorescence (ΔF/F═(F−F0)/F0), and baseline noise was subtracted. […]

hTAS2R7 = target: T3, hTAS2R7 (Homo sapiens, UniProt Q9NYW3); test: as above; type: cell-based; conditions: 100 μM test substance; agonist quinine sulfate 10 μM; agonist alone = 100%
T3 construct: expressed in transfected cells; host or cells: HEK293T cells stably expressing chimeric Gα16gust44, transient transfection
T3 sequence (Q9NYW3 1-318): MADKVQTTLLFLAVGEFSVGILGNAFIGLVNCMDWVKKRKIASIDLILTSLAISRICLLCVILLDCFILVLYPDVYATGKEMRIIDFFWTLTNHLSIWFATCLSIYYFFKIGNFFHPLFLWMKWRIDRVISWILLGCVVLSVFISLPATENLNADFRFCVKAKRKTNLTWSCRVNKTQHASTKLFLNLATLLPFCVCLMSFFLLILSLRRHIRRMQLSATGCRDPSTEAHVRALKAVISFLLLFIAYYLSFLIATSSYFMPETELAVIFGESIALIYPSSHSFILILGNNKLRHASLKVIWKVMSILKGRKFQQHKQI
From the text: as §1, §2
(§5) To test 3β hydroxy dihydro costunolide and 3β hydroxy pelenolide for antagonistic or enhancing effects on hTAS2R activation, transfected cells were stimulated with cognate agonist bitter substances at EC90 concentrations (Table 2) without 3β hydroxy dihydro costunolide and 3β hydroxy pelenolide. The cellular responses after application of the agonist alone were set to 100%, responses obtained after coapplication of agonists and 100 μM 3β hydroxy dihydro costunolide or 100 μM 3β hydroxy pelenolide are shown relative to this value (FIG. 4).

hTAS2R5 = target: T4, hTAS2R5 (Homo sapiens, UniProt Q9NYW4); test: as above; type: cell-based; conditions: 100 μM test substance; agonist denatonium saccharide 3000 μM; agonist alone = 100%
T4 construct: expressed in transfected cells; host or cells: HEK293T cells stably expressing chimeric Gα16gust44, transient transfection
T4 sequence (Q9NYW4 1-299): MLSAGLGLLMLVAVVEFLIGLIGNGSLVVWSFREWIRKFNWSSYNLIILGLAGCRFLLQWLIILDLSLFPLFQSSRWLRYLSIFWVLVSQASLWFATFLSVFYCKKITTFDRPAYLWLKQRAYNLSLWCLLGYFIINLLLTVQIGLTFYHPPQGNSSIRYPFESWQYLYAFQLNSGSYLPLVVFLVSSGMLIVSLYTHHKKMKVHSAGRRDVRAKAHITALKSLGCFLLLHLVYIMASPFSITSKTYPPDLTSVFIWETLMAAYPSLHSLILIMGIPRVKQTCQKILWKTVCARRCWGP
From the text: as §1, §2, §5

Compound | calcium response of hTAS2R14-transfected cells (hTAS2R14) | calcium response of hTAS2R10-transfected cells (hTAS2R10) | EC50 (hTAS2R10; concentration-response, intracellular calcium) | agonist activation of cells expressing any of the other hTAS2Rs on coapplication (other hTAS2 receptors) | agonist-dependent response of hTAS2R7-expressing cells on coapplication (hTAS2R7) | agonist-dependent response of hTAS2R5-expressing cells on coapplication (hTAS2R5)
C/C1=C\C[C@H](O)/C(C)=C/[C@H]2OC(=O)[C@@H](C)C2CC1 (stereo partly drawn) [3β hydroxy dihydro costunolide] | responded | responded | 25.2 ± 3.6 µM | did not alter | increased responses | increased responses
C/C1=C\C[C@H](O)[C@@H](C)C[C@H]2OC(=O)[C@@H](C)[C@@H]2CC1 [3β hydroxy pelenolide] | displayed calcium signals | displayed calcium signals | – | not affected | – | –
